Laboratory results as given in patent US8188139B2, “Heterocyclic-substituted phenyl methanones” (Hoffman-La Roche Inc., priority 2005, dated 2012).

The compounds below were run against T1, mGlyT-1b (Mus musculus, UniProt P28571) (assay: Glycine uptake inhibition assay (mGlyT-1b)). Conditions: inhibition of [3H]-glycine uptake in Flp-in-CHO cells transfected with mGlyT-1b cDNA; 20 min preincubation at 22° C.; read-out: IC50 (μM) at GlyT-1.
T1 construct: host or cells: Flp-in-CHO
T1 sequence (P28571 1-651 isoform P28571-2): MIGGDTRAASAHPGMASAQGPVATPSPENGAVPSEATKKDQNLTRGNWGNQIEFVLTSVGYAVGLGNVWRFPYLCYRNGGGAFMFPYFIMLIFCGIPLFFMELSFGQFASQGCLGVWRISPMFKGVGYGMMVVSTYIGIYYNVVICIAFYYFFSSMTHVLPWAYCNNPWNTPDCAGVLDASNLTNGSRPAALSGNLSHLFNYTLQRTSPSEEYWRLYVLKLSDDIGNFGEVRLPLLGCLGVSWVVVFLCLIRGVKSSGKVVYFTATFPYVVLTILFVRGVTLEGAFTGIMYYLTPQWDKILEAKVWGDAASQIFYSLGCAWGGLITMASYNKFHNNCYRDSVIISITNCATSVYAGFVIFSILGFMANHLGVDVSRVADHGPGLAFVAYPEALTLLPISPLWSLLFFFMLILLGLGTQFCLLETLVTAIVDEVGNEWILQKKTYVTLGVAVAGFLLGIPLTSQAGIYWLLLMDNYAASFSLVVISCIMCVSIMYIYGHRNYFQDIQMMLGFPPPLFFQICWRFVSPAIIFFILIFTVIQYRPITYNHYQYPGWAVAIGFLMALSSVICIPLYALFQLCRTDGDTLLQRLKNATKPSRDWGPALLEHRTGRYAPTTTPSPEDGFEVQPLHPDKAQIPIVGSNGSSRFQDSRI
Type: cell-based
Summary of the method: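 Flp-in CHO cells stably expressing mouse GlyT-1b were preincubated with inhibitor (concentration range) for 20 min at 22° C. in pH 7.4 uptake buffer; nonspecific uptake defined with 10 mM glycine. [3H]-glycine 60 nM plus 25 μM unlabelled glycine was then added; cell-associated radioactivity counted by scintillation and IC50 derived.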

SMILES	IC50 [µM]
C[C@H](Oc1ccc(S(C)(=O)=O)cc1C(=O)N1Cc2ccc(-c3ccccc3F)cc2C1)C(F)(F)F [Example 335, [5-(2-Fluoro-phenyl)-1,3-dihydro-isoindol-2-yl]-[5-methanesulfonyl-2-(2,2,2-trifluoro-1-methyl-ethoxy)-phenyl]-methanone]	0.031
CS(=O)(=O)c1ccc(-c2ccc(F)cc2)c(C(=O)N2Cc3ccc(C4CCOCC4)cc3C2)c1 [Example 283, (4′-Fluoro-4-methanesulfonyl-biphenyl-2-yl)-[5-(tetrahydro-pyran-4-yl)-1,3-dihydro-isoindol-2-yl]-methanone]	0.016
CS(=O)(=O)c1ccc(OCC(F)(F)C(F)(F)F)c(C(=O)N2Cc3ccc(C4CCCOC4)cc3C2)c1 (racemic) [Example 364, rac-[5-Methanesulfonyl-2-(2,2,3,3,3-pentafluoro-propoxy)-phenyl]-[5-(tetrahydro-pyran-3-yl)-1,3-dihydro-isoindol-2-yl]-methanone]	0.005
CS(=O)(=O)c1ccc(OCC2CC2)c(C(=O)N2Cc3ccc(C4CCOCC4)cc3C2)c1 [Example 271, (2-Cyclopropyl-methoxy-5-methane-sulfonyl-phenyl)-[5-(tetrahydro-pyran-4-yl)-1,3-dihydro-isoindol-2-yl]-methanone]	0.029
COC(=O)c1cccc2c1CCN2C(=O)c1cc(S(C)(=O)=O)ccc1O[C@@H](C)C(F)(F)F [Example 205, 1-[5-Methanesulfonyl-2-((S)-2,2,2-trifluoro-1-methyl-ethoxy)-benzoyl]-2,3-dihydro-1H-indole-4-carboxylic acid methyl ester]	0.046
C[C@H](Oc1ccc(S(C)(=O)=O)cc1C(=O)N1Cc2ccc(C3CCOCC3)cc2C1)C(F)(F)F [Example 269, [5-Methanesulfonyl-2-((S)-2,2,2-trifluoro-1-methyl-ethoxy)-phenyl]-[5-(tetrahydro-pyran-4-yl)-1,3-dihydro-isoindol-2-yl]-methanone]	0.014
CS(=O)(=O)c1ccc(OCC(F)(F)C(F)F)c(C(=O)N2Cc3cnc(C(F)(F)F)cc3C2)c1 [Example 156, [5-Methanesulfonyl-2-(2,2,3,3-tetrafluoro-propoxy)-phenyl]-(6-trifluoromethyl-1,3-dihydro-pyrrolo[3,4-c]pyridin-2-yl)-methanone]	0.047
CS(=O)(=O)c1ccc(OCC(F)(F)C(F)(F)F)c(C(=O)N2Cc3ccc(C4CCOC4)cc3C2)c1 (racemic) [Example 361, rac-[5-Methanesulfonyl-2-(2,2,3,3,3-pentafluoro-propoxy)-phenyl]-[5-(tetrahydro-furan-3-yl)-1,3-dihydro-isoindol-2-yl]-methanone]	0.002
C[C@H](Oc1ccc(S(C)(=O)=O)cc1C(=O)N1Cc2cnc(-c3ccc(F)cc3)cc2C1)C(F)(F)F [Example 321, [6-(4-Fluoro-phenyl)-1,3-dihydro-pyrrolo[3,4-c]pyridin-2-yl]-[5-methanesulfonyl-2-((S)-2,2,2-trifluoro-1-methyl-ethoxy)-phenyl]-methanone]	0.034
C[C@H](Oc1ccc(S(C)(=O)=O)cc1C(=O)N1Cc2cnc(N3CCOCC3)cc2C1)C(F)(F)F [Example 356, [5-Methanesulfonyl-2-((S)-2,2,2-trifluoro-1-methyl-ethoxy)-phenyl]-(6-morpholin-4-yl-1,3-dihydro-pyrrolo[3,4-c]pyridin-2-yl)-methanone]	0.013
C[C@@H](Oc1ccc(S(C)(=O)=O)cc1C(=O)N1Cc2cc(C(F)(F)F)cnc2C1)C(F)(F)F [Example 139, [5-Methanesulfonyl-2-((R)-2,2,2-trifluoro-1-methyl-ethoxy)-phenyl]-(3-trifluoro-methyl-5,7-dihydro-pyrrolo[3,4-b]pyridin-6-yl)-methanone]	0.014

More lines, now with the values ahead:

IC50 [µM]	SMILES
0.02	C[C@H](Oc1ccc(S(C)(=O)=O)cc1C(=O)N1Cc2ccc(-c3cccc(F)c3)cc2C1)C(F)(F)F [Example 334, [5-(3-Fluoro-phenyl)-1,3-dihydro-isoindol-2-yl]-[5-methanesulfonyl-2-(2,2,2-trifluoro-1-methyl-ethoxy)-phenyl]-methanone]
0.034	CNS(=O)(=O)c1ccc(OC(C)C)c(C(=O)N2Cc3ccc(C(F)(F)F)cc3C2)c1 [Example 43, 4-Isopropoxy-N-methyl-3-(5-trifluoromethyl-1,3-dihydro-isoindole-2-carbonyl)-benzenesulfonamide]
0.048	CC(C)Sc1ccc(S(C)(=O)=O)cc1C(=O)N1Cc2cc(Cl)c(Cl)cc2C1 [Example 16, (5,6-Dichloro-1,3-dihydro-isoindol-2-yl)-(2-isopropylsulfanyl-5-methanesulfonyl-phenyl)-methanone]
0.002	C[C@H](Oc1ccc(S(C)(=O)=O)cc1C(=O)N1Cc2cc(F)c(C3CCOCC3)cc2C1)C(F)(F)F [Example 366, [5-Fluoro-6-(tetrahydro-pyran-4-yl)-1,3-dihydro-isoindol-2-yl]-[5-methanesulfonyl-2-((S)-2,2,2-trifluoro-1-methyl-ethoxy)-phenyl]-methanone]
0.005	C[C@H](Oc1ccc(S(C)(=O)=O)cc1C(=O)N1Cc2ccc(C3(F)COC3)cc2C1)C(F)(F)F [Example 368, [5-(3-Fluoro-oxetan-3-yl)-1,3-dihydro-isoindol-2-yl]-[5-methanesulfonyl-2-((S)-2,2,2-trifluoro-1-methyl-ethoxy)-phenyl]-methanone]
0.045	C[C@H](Oc1ccc(S(C)(=O)=O)cc1C(=O)N1Cc2ccc(-c3ccccc3Cl)cc2C1)C(F)(F)F [Example 324, [5-(2-Chloro-phenyl)-1,3-dihydro-isoindol-2-yl]-[5-methanesulfonyl-2-(2,2,2-trifluoro-1-methyl-ethoxy)-phenyl]-methanone]
0.0456	CCOc1cc2c(cc1C(F)(F)F)CN(C(=O)c1cc(S(C)(=O)=O)ccc1OC(C)C)C2 [Example 240]
0.005	CS(=O)(=O)c1ccc(OCC(F)(F)C(F)(F)F)c(C(=O)N2Cc3cc(Cl)c(OC4CCOCC4)cc3C2)c1 [Example 380, [5-Chloro-6-(tetrahydro-pyran-4-yloxy)-1,3-dihydro-isoindol-2-yl]-[5-methanesulfonyl-2-(2,2,3,3,3-pentafluoro-propoxy)-phenyl]-methanone]
0.049	COc1cc2c(cc1Cl)CN(C(=O)c1cc(S(C)(=O)=O)ccc1SC(C)C)C2 [Example 71, (5-Chloro-6-methoxy-1,3-dihydro-isoindol-2-yl)-(2-isopropylsulfanyl-5-methanesulfonyl-phenyl)-methanone]
0.022	COc1cc2c(cc1Cl)CN(C(=O)c1cc(S(C)(=O)=O)ccc1O[C@@H](C)C(F)(F)F)C2 [Example 27, (5-Chloro-6-methoxy-1,3-dihydro-isoindol-2-yl)-[5-methanesulfonyl-2-((S)-2,2,2-trifluoro-1-methyl-ethoxy)-phenyl]-methanone]
0.028	CC(C)Oc1ccc(S(C)(=O)=O)cc1C(=O)N1Cc2ccc(C3CCOCC3)cc2C1 [Example 268, (2-Isopropoxy-5-methanesulfonyl-phenyl)-[5-(tetrahydro-pyran-4-yl)-1,3-dihydro-isoindol-2-yl]-methanone]
0.022	C[C@H](Oc1ccc(S(C)(=O)=O)cc1C(=O)N1Cc2ccc(-c3cc(F)cc(F)c3)cc2C1)C(F)(F)F [Example 337]
0.016	CC(C)Oc1ccc(S(C)(=O)=O)cc1C(=O)N1Cc2cc(Cl)c(OC3CCOCC3)cc2C1 [Example 376, [5-Chloro-6-(tetrahydro-pyran-4-yloxy)-1,3-dihydro-isoindol-2-yl]-(2-isopropoxy-5-methanesulfonyl-phenyl)-methanone]
0.022	Cc1csc(-c2ccc3c(c2)CN(C(=O)c2cc(S(C)(=O)=O)ccc2O[C@@H](C)C(F)(F)F)C3)c1 [Example 331, [5-Methanesulfonyl-2-(2,2,2-trifluoro-1-methyl-ethoxy)-phenyl]-[5-(4-methyl-thiophen-2-yl)-1,3-dihydro-isoindol-2-yl]-methanone]
0.032	CS(=O)(=O)c1ccc(-c2ccc(F)cc2)c(C(=O)N2Cc3cc(Cl)c(N4CCOCC4)cc3C2)c1 [Example 256, (5-Chloro-6-morpho-lin-4-yl-1,3-dihydro-isoindol-2-yl)-(4′-fluoro-4-methane-sulfonyl-biphenyl-2-yl)-methanone]
0.021	C[C@H](Oc1ccc(S(C)(=O)=O)cc1C(=O)N1Cc2ccc(C(F)(F)F)cc2C1)C(F)(F)F [Example 15, [5-Methanesulfonyl-2-((S)-2,2,2-trifluoro-1-methyl-ethoxy)-phenyl]-(5-trifluoromethyl-1,3-dihydro-isoindol-2-yl)-methanone]
0.017	C[C@H](Oc1ccc(S(C)(=O)=O)cc1C(=O)N1Cc2ccc(-c3ccncc3)cc2C1)C(F)(F)F [Example 315, [5-Methanesulfonyl-2-((S)-2,2,2-trifluoro-1-methyl-ethoxy)-phenyl]-(5-pyridin-4-yl-1,3-dihydro-isoindol-2-yl)-methanone]
